Assay results from the supplement of paper PMC8633005.

Experiments:
Experiment in all cases: drug sensitivity score (DSS) (DSS (unitless, 0-50 scale)); higher = more sensitive (stronger viability inhibition); extreme values may be limits of the assay
Settings in all cases: 72 h; culture: 2D
SK-MEL-28 = system: SK-MEL-28
How it was run: (§1)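 Drug sensitivity scores, modified area-under-curve measures, were derived from dose-response curves fitted in the in-house Breeze software. The curves came from melanoma cell lines and patient-derived melanoma cultures (1000–1500 cells per well) grown in 2D in 384-well plates holding a 527-compound oncology library. Each compound was dissolved in DMSO or water and tested at five concentrations across a 10,000-fold range. Viability was read by CellTiter-Glo luminescence after 72 h at 37 °C.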

Bowes = system: Bowes
How it was run: as §1

SK-MEL-2 = system: SK-MEL-2
How it was run: as §1

WM165 = system: WM165
How it was run: as §1

WM852 = system: WM852
How it was run: as §1

FM-MEL-6 = system: FM-MEL-6
How it was run: as §1

FM-MEL-3 = system: FM-MEL-3
How it was run: as §1

FM-MEL-2 = system: FM-MEL-2
How it was run: as §1

Row | Compound | drug sensitivity score (SK-MEL-28) | drug sensitivity score (Bowes) | drug sensitivity score (SK-MEL-2) | drug sensitivity score (WM165) | drug sensitivity score (WM852) | drug sensitivity score (FM-MEL-6) | drug sensitivity score (FM-MEL-3) | drug sensitivity score (FM-MEL-2)
1 | CCN(CC)CCNC(=O)c1c(C)[nH]c(/C=C2\C(=O)Nc3ccc(F)cc32)c1C [Sunitinib] | 0 | 0 | 0 | 0.8 | 0 | 0 | 0 | 0
2 | CC(C)(O)CC(=O)NCCn1ccc2ncnc(Nc3ccc(Oc4cccc(C(F)(F)F)c4)c(Cl)c3)c21 [TAK-285] | 0 | 1.4 | 0 | 0 | 0 | 0 | 0 | 0
3 | CCS(=O)(=O)c1cccc(-c2cc(C(=O)NC3CCN(C)CC3)c(C)c3[nH]c4ncc(C)cc4c23)c1 [TAK-901] | 4.1 | 7.3 | 2.4 | 9.4 | 4 | 1.9 | 1.9 | 0.9
4 | Cc1cccc(-c2[nH]c(CNc3ccccc3F)nc2-c2ccc3ncnn3c2)n1 [TEW-7197] | 0 | 0 | 0 | 0 | 0 | 0 | 0 | 0.7
5 | Nc1nc(N)c2nc(-c3cccc(O)c3)c(-c3cccc(O)c3)nc2n1 [TG100-115] | 0 | 2.9 | 0 | 0 | 0 | 1 | 0 | 1.8
6 | CC(C)Oc1ccc(-c2nn([C@@H](C)c3oc4ccc(F)cc4c(=O)c3-c3cccc(F)c3)c3ncnc(N)c23)cc1F [TGR-1202] | 0 | 0.9 | 0 | 0 | 1 | 0 | 0 | 0.9
7 | Cc1cc(C(C)Nc2ccccc2)c2nc(N3CCOCC3)cc(=O)n2c1 (stereo not drawn) [TGX-221] | 3.3 | 0.6 | 0 | 0.1 | 1.2 | 0.9 | 1.1 | 2.2
8 | Nc1nc(NC2CC2)cc(-c2cccc(Cl)c2Cl)n1 [TH588] | 0 | 0 | 0 | 0.9 | 4.3 | 0 | 2.2 | 0
9 | Clc1ccccc1C(c1ccccc1)(c1ccccc1)n1cccn1 [TRAM-34] | 0 | 0 | 0 | 0 | 0 | 0 | 0 | 0
10 | CC(=O)Nc1ccc(C(=O)Nc2ccccc2N)cc1 [Tacedinaline] | 0 | 0 | 0 | 0 | 1.5 | 1.7 | 2.7 | 1.6
11 | C=CC[C@@H]1/C=C(\C)C[C@H](C)C[C@H](OC)[C@H]2O[C@@](O)(C(=O)C(=O)N3CCCC[C@H]3C(=O)O[C@H](/C(C)=C/[C@@H]3CC[C@@H](O)[C@H](OC)C3)[C@H](C)[C@@H](O)CC1=O)[C@H](C)C[C@@H]2OC [Tacrolimus] | 0 | 0.6 | 0 | 0 | 0.1 | 0.1 | 1.3 | 1.9
12 | CN(C(=O)c1ccc(F)cc1C(F)(F)F)C1CCN(c2nnc(-c3ccnn3C)c3ccccc23)CC1 [Taladegib] | 0 | 0 | 0 | 0 | 0 | 0 | 0 | 0.4
13 | Cn1ncnc1[C@H]1c2n[nH]c(=O)c3cc(F)cc(c23)N[C@@H]1c1ccc(F)cc1 [Talazoparib] | 0.1 | 0 | 0 | 11.7 | 0 | 2.3 | 2.3 | 0.4
14 | C[C@@H]1CN(Cc2ccc(F)cc2)[C@@H](C)CN1C(=O)c1cc2c(C(=O)C(=O)N(C)C)cn(C)c2cc1Cl [Talmapimod] | 0 | 0 | 0 | 0 | 0 | 0 | 0 | 0
15 | COc1cc(Nc2ncc(F)c(Nc3ccc4c(n3)NC(=O)C(C)(C)O4)n2)cc(OC)c1OC [Tamatinib] | 0 | 1.3 | 0 | 0.9 | 0 | 0 | 2.7 | 5.5
16 | CC/C(=C(\c1ccccc1)c1ccc(OCCN(C)C)cc1)c1ccccc1 [Tamoxifen] | 2.4 | 0 | 0 | 3.8 | 2.3 | 4.4 | 5.6 | 3.7
17 | COc1cc2c(N3CCN(C(=O)Nc4ccc(OC(C)C)cc4)CC3)ncnc2cc1OCCCN1CCCCC1 [Tandutinib] | 0 | 0 | 0 | 0 | 0 | 0 | 0 | 0
18 | O[C@H]1CC[C@H](Nc2ncc3nc(Nc4c(F)cc(F)cc4F)n([C@H]4CCOC4)c3n2)CC1 [Tanzisertib] | 0.8 | 0 | 0 | 0.1 | 0 | 0 | 0.1 | 0
19 | C[C@@H](C(=O)O)c1ccc(-c2ccccc2)c(F)c1 [Tarenflurbil] | 0 | 0 | 0 | 0 | 0 | 0 | 0 | 0
20 | Cc1nc(-c2cn3c(n2)-c2ccc(-c4cnn(C(C)(C)C(N)=O)c4)cc2OCC3)n(C(C)C)n1 [Taselisib] | 5.6 | 2.8 | 0.2 | 4.2 | 3.5 | 6.6 | 4.7 | 7.4
21 | COc1cccc2c1c(O)c(C(=O)N(C)c1ccc(C(F)(F)F)cc1)c(=O)n2C [Tasquinimod] | 0 | 0 | 0 | 0 | 0 | 0.4 | 0.2 | 0.9

Row | Compound | drug sensitivity score (SK-MEL-28) | drug sensitivity score (Bowes) | drug sensitivity score (SK-MEL-2) | drug sensitivity score (WM165) | drug sensitivity score (WM852) | drug sensitivity score (FM-MEL-6) | drug sensitivity score (FM-MEL-3) | drug sensitivity score (FM-MEL-2)
22 | CCN(c1cc(-c2ccc(CN3CCOCC3)cc2)cc(C(=O)NCc2c(C)cc(C)[nH]c2=O)c1C)C1CCOCC1 [Tazemetostat] | 0 | 1.5 | 0 | 0 | 0 | 1.3 | 0 | 0
23 | CNC(=O)c1cc(COc2nnc(Nc3ccc(Cl)cc3)c3ccoc23)ccn1 [Telatinib] | 0 | 0 | 0 | 0 | 0.3 | 0.1 | 0 | 0
24 | Cn1nnc2c(C(N)=O)ncn2c1=O [Temozolomide] | 0 | 0 | 0 | 0 | 0 | 0 | 0 | 0
25 | CO[C@H]1C[C@@H]2CC[C@@H](C)[C@@](O)(O2)C(=O)C(=O)N2CCCC[C@H]2C(=O)O[C@H]([C@H](C)C[C@@H]2CC[C@@H](OC(=O)C(C)(CO)CO)[C@H](OC)C2)CC(=O)[C@H](C)/C=C(\C)[C@@H](O)[C@@H](OC)C(=O)[C@H](C)C[C@H](C)/C=C/C=C/C=C/1C [Temsirolimus] | 2.5 | 0 | 0 | 6 | 0 | 4.4 | 0 | 4
26 | COc1cc([C@@H]2c3cc4c(cc3[C@@H](O[C@@H]3O[C@@H]5CO[C@@H](c6cccs6)O[C@H]5[C@H](O)[C@H]3O)[C@H]3COC(=O)[C@H]23)OCO4)cc(OC)c1O [Teniposide] | 0 | 0 | 0 | 0 | 0 | 0 | 0 | 0
27 | CN1CCC(COc2cnc(-c3cccc(Cn4nc(-c5cccc(C#N)c5)ccc4=O)c3)nc2)CC1 [Tepotinib] | 0 | 0 | 0 | 0 | 0 | 0 | 0 | 0
28 | COc1cc2c(Nc3ccc(Cl)c(Cl)c3F)ncnc2cc1OC[C@@H]1C[C@@H]2CN(C)C[C@@H]2C1 [Tesevatinib] | 0.1 | 1.8 | 0 | 0.1 | 0 | 0.3 | 0.8 | 0.1
29 | O=C1CCC(N2C(=O)c3ccccc3C2=O)C(=O)N1 (stereo not drawn) [Thalidomide] | 0 | 0 | 0 | 0 | 0 | 0 | 0 | 0
30 | Nc1nc2[nH]cnc2c(=S)[nH]1 [Thioguanine] | 4.3 | 8.5 | 3.5 | 12.8 | 6.8 | 2.6 | 0 | 5.4
31 | O=c1sn(-c2cccc3ccccc23)c(=O)n1Cc1ccccc1 [Tideglusib] | 0 | 0 | 0 | 0 | 0 | 0 | 0 | 0
32 | Cn1cncc1[C@@](N)(c1ccc(Cl)cc1)c1ccc2c(c1)c(-c1cccc(Cl)c1)cc(=O)n2C [Tipifarnib] | 5 | 21.1 | 3.6 | 10.4 | 3.4 | 6.2 | 11.2 | 7.4
33 | CC#CC(=O)N1CC[C@@H](n2c(=O)n(-c3ccc(Oc4ccccc4)cc3)c3c(N)ncnc32)C1 [Tirabrutinib] | 0 | 2 | 0 | 0 | 0 | 0 | 0 | 0
34 | O=C1NC(=O)[C@@H](c2cn3c4c(cccc24)CCC3)[C@@H]1c1c[nH]c2ccccc12 [Tivantinib] | 2.1 | 3.6 | 3.8 | 3.1 | 3.1 | 3.2 | 2.3 | 1.9
35 | COc1cc2nccc(Oc3ccc(NC(=O)Nc4cc(C)on4)c(Cl)c3)c2cc1OC [Tivozanib] | 3.1 | 2.8 | 0 | 3.1 | 1.1 | 0.5 | 4.8 | 3.4
36 | C[C@@H]1CCN(C(=O)CC#N)C[C@@H]1N(C)c1ncnc2[nH]ccc12 [Tofacitinib] | 0 | 0 | 0 | 0 | 0 | 0 | 0 | 0
37 | CC[C@@]1(O)C(=O)OCc2c1cc1n(c2=O)Cc2cc3c(CN(C)C)c(O)ccc3nc2-1 [Topotecan] | 8.1 | 6.8 | 8.2 | 25.3 | 1.4 | 8.1 | 11 | 6.1
38 | CN(C)CCOc1ccc(/C(=C(/CCCl)c2ccccc2)c2ccccc2)cc1 [Toremifene] | 4.4 | 1.1 | 1.6 | 4.3 | 3.4 | 6 | 7.8 | 5.8
39 | CC(C)C[C@@H](C(=O)N[C@H](C(=O)OC1CCCC1)c1ccccc1)[C@H](O)C(=O)NO [Tosedostat] | 6.7 | 1.4 | 5.3 | 6.8 | 0.7 | 7.9 | 6.3 | 6.3
40 | Cc1cc(Nc2cc(N3CCN(C)CC3)nc(Sc3ccc(NC(=O)C4CC4)cc3)n2)n[nH]1 [Tozasertib] | 5.1 | 11.7 | 2.8 | 12.8 | 3.5 | 2.7 | 4.5 | 1.9
41 | CC1=C(/C=C/C(C)=C/C=C/C(C)=C/C(=O)O)C(C)(C)CCC1 [Tretinoin] | 0 | 5.7 | 0 | 0 | 0 | 0.8 | 0.7 | 0
